The source of these data is paper PMC10584170, “Machine learning-based phenotypic imaging to characterise the targetable biology of Plasmodium falciparum male gametocytes for the development of transmission-blocking antimalarials” (PLOS Pathogens, 2023).

For test [1], the system named is P. falciparum male gametocytes. Description: P. falciparum Dual Gamete Formation Assay (PfDGFA), male readout (exflagellation). Format: cell-based, Plasmodium falciparum NF54. To be noted: for % inhibition male (individual replicates) R1: replicate R1; for % inhibition male (individual replicates) R3: replicate R3; for % inhibition male (individual replicates) R4: replicate R4; for Average inhibition male (%): average of replicates; for Activity: hit = >50% inhibition in male or female readout in at least 3 replicates, 0 = no class assigned. The procedure, abridged: (§1)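 Two sex-specific readouts come from one well: male exflagellation centres recorded by brightfield video right after activation, and female gametes scored by Cy3-anti-Pfs25 fluorescence after 24 h at 28°C.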

Test [2] relates to P. falciparum female gametocytes. Put plainly: P. falciparum Dual Gamete Formation Assay (PfDGFA), female readout (Pfs25-positive female gametes). Format: cell-based, Plasmodium falciparum NF54. To be noted: for % inhibition female (individual replicates) R1: replicate R1; for % inhibition female (individual replicates) R3: replicate R3; for % inhibition female (individual replicates) R4: replicate R4; for Average inhibition female (%): average of replicates. The procedure, abridged: as §1

Setting [3] is: PfDGFA at 2µM, 24h preincubation with gametocytes prior to induction of gametogenesis.
The mark [4] stands for this setting: PfDGFA at 2µM, 24h preincubation.
Where [5] appears, read: 2µM, 24h preincubation with gametocytes.
[6] abbreviates: 2µM, 24h preincubation with gametocytes prior to induction of gametogenesis.
Setting [7] is: 2µM, 24h preincubation, hits selected on >50% inhibition in the male readout across replicates.
[8] abbreviates: 2µM, 24h preincubation, hits selected on >50% inhibition in the female readout across replicates.
The mark [9] stands for this setting: 2µM, 24h preincubation, number of replicates with >50% inhibition in the male readout.
[10] abbreviates: 2µM, 24h preincubation, number of replicates with >50% inhibition in the female readout.

On to `Cc1c(OC(C)C)nc2ccccc2c1C(=O)N[C@H](c1cccc(F)c1)C1CC1` [TCMDC-135994], for which, in test [1] (setting [3]), the “% inhibition male (individual replicates) R1” value amounted to 5.7%, the “% inhibition male (individual replicates) R3” value is listed as 14.1% and the “% inhibition male (individual replicates) R4” value came to 25.6%. In test [1] (setting [4]), the “Average inhibition male (%)” value was found to be 14.7%. Also, in test [2] (setting [3]), the “% inhibition female (individual replicates) R1” value was 11.9%, the “% inhibition female (individual replicates) R3” value is -14.7% and the “% inhibition female (individual replicates) R4” value is 16.8%. For the same molecule, the “Average inhibition female (%)” value in test [2] (setting [4]) is recorded as 1.3%.

Turning to `CCn1c(-c2nonc2N)nc2c(-c3ccccc3)ncc(OCCCCNCCc3ncc[nH]3)c21.O=C(O)C(F)(F)F` [TCMDC-136000], in test [1] (setting [5]), the “Average inhibition male (%)” value came to 92.8%, the “% inhibition male (individual replicates) R1” value is reported as 92.7%, the “% inhibition male (individual replicates) R3” value is given as 86.1% and the “% inhibition male (individual replicates) R4” value was 98.9%. Also, in test [2] (setting [5]), the “Average inhibition female (%)” value is on record as 36.6%, the “% inhibition female (individual replicates) R1” value is recorded as 29.5%, the “% inhibition female (individual replicates) R3” value turned out to be 30.1% and the “% inhibition female (individual replicates) R4” value is given as 56.9%.

Consider `COc1ccc2ncc(F)c(CCN3C[C@H](CNCc4nc5c(cc4Cl)OCC(=O)N5)[C@H](O)C3)c2n1.Cl` [TCMDC-136031], for which, in test [1] (setting [6]), the “Average inhibition male (%)” value is on record as 6.8%, the “% inhibition male (individual replicates) R1” value is reported as 19.6%, the “% inhibition male (individual replicates) R3” value is -8.5% and the “% inhibition male (individual replicates) R4” value was 9.5%. The same molecule yielded a HitlevelM in test [1] (setting [7]) of 0. Besides, the Activity in test [1] (setting [4]) is reported as 0. Further, in test [2] (setting [6]), the “Average inhibition female (%)” value came to 9.3%, the “% inhibition female (individual replicates) R1” value is reported as 13.9%, the “% inhibition female (individual replicates) R3” value is reported as -6.7% and the “% inhibition female (individual replicates) R4” value is 27.7%. The molecule further displayed a HitlevelF in test [2] (setting [8]) of 0.

For `COc1ccc2nccc([C@H](O)CN3CCC(NCc4ccc5c(c4C)OCCO5)CC3)c2n1.Cl` [TCMDC-136066], in test [1] (setting [6]), the “Average inhibition male (%)” value was -9.6%, the “% inhibition male (individual replicates) R1” value is recorded as -4.0%, the “% inhibition male (individual replicates) R3” value is on record as -34.1% and the “% inhibition male (individual replicates) R4” value worked out at 0.2%. In addition, the HitlevelM in test [1] (setting [7]) is 0. In test [1] (setting [4]), this molecule had an Activity of 0. For the same molecule, in test [2] (setting [6]), the “Average inhibition female (%)” value is recorded as 6.6%, the “% inhibition female (individual replicates) R1” value turned out to be 21.2%, the “% inhibition female (individual replicates) R3” value is -26.0% and the “% inhibition female (individual replicates) R4” value was found to be 9.8%. Besides, the HitlevelF in test [2] (setting [8]) stood at 0.

As for `Cn1cc(CN2CCC(OC(c3ccccc3)c3ccc(Cl)cc3)CC2)cn1` (stereo not shown) [TCMDC-136165], in test [1] (setting [6]), the “Average inhibition male (%)” value is on record as 26.9%, the “% inhibition male (individual replicates) R1” value turned out to be 21.0%, the “% inhibition male (individual replicates) R3” value is reported as 11.7% and the “% inhibition male (individual replicates) R4” value is listed as 55.6%. The molecule further showed a HitlevelM in test [1] (setting [9]) of 1. Besides, in test [2] (setting [6]), the “Average inhibition female (%)” value is 27.9%, the “% inhibition female (individual replicates) R1” value is 28.0%, the “% inhibition female (individual replicates) R3” value is recorded as 20.7% and the “% inhibition female (individual replicates) R4” value came to 33.3%. The same molecule registered a HitlevelF in test [2] (setting [10]) of 0.

`CCn1c(-c2nonc2N)nc2c(-c3cccc(NC(=O)Nc4ccccc4OC)c3)ncc(OCCCN)c21.O=C(O)C(F)(F)F` [TCMDC-136190]: in test [1] (setting [6]), the “Average inhibition male (%)” value came out at 38.6%, the “% inhibition male (individual replicates) R1” value is on record as 46.0%, the “% inhibition male (individual replicates) R3” value was 15.9% and the “% inhibition male (individual replicates) R4” value is given as 54.2%. Further, in test [1] (setting [9]), the HitlevelM stood at 1. Further, in test [2] (setting [6]), the “Average inhibition female (%)” value came out at 31.3%, the “% inhibition female (individual replicates) R1” value turned out to be 29.0%, the “% inhibition female (individual replicates) R3” value amounted to 9.1% and the “% inhibition female (individual replicates) R4” value was determined as 20.1%. This molecule also gave a HitlevelF in test [2] (setting [10]) of 1.

`Cc1[nH]cc(Br)c(=O)c1-c1ccc(Oc2ccc(OC(F)(F)F)cc2)cc1` [TCMDC-136197]: in test [1] (setting [6]), the “Average inhibition male (%)” value is listed as -14.5%, the “% inhibition male (individual replicates) R1” value is on record as -14.1%, the “% inhibition male (individual replicates) R3” value is given as -25.2% and the “% inhibition male (individual replicates) R4” value is on record as -5.8%. The molecule also yielded a HitlevelM in test [1] (setting [7]) of 0. Moreover, the Activity in test [1] (setting [4]) amounted to 0. In addition, in test [2] (setting [6]), the “Average inhibition female (%)” value amounted to 8.0%, the “% inhibition female (individual replicates) R1” value was determined as 22.6%, the “% inhibition female (individual replicates) R3” value was determined as 0.02% and the “% inhibition female (individual replicates) R4” value was -5.7%. Also, the HitlevelF in test [2] (setting [8]) is given as 0.

In the case of `Cl.c1ccc2c(C3CCN(CCCCOc4ccc5c(c4)CCN(CC4CC4)CC5)CC3)c[nH]c2c1` [TCMDC-136244], in test [1] (setting [6]), the “Average inhibition male (%)” value is 8.5%, the “% inhibition male (individual replicates) R1” value worked out at 7.6%, the “% inhibition male (individual replicates) R3” value is on record as -1.4% and the “% inhibition male (individual replicates) R4” value was 14.2%. Further, the HitlevelM in test [1] (setting [9]) stood at 0. In addition, in test [2] (setting [6]), the “Average inhibition female (%)” value came to 24.9%, the “% inhibition female (individual replicates) R1” value is 21.4%, the “% inhibition female (individual replicates) R3” value stood at 5.1% and the “% inhibition female (individual replicates) R4” value is reported as 24.5%. The molecule also had a HitlevelF in test [2] (setting [10]) of 0.

`Cc1ccc(-n2c(C)nc3c(Nc4ccc(-c5ccncc5)cc4)ncnc32)c(C)c1` [TCMDC-136289]: in test [1] (setting [6]), the “Average inhibition male (%)” value is given as 51.6%, the “% inhibition male (individual replicates) R1” value amounted to 92.5% and the “% inhibition male (individual replicates) R4” value is listed as -28.8%. Also, in test [1] (setting [7]), the HitlevelM was 2. This molecule returned an Activity in test [1] (setting [4]) of 0. For the same molecule, in test [2] (setting [6]), the “Average inhibition female (%)” value was found to be 6.8%, the “% inhibition female (individual replicates) R1” value came to 7.7%, the “% inhibition female (individual replicates) R3” value worked out at 15.7% and the “% inhibition female (individual replicates) R4” value is 3.5%. This molecule also returned a HitlevelF in test [2] (setting [8]) of 0.

`CN(C)CCCNCc1cn(S(=O)(=O)c2ccccc2Cl)c2ccccc12.Cl` [TCMDC-136302]: in test [1] (setting [6]), the “Average inhibition male (%)” value was 39.6%, the “% inhibition male (individual replicates) R1” value amounted to 57.4%, the “% inhibition male (individual replicates) R3” value turned out to be 42.5% and the “% inhibition male (individual replicates) R4” value turned out to be 62.3%. Besides, in test [1] (setting [9]), the HitlevelM worked out at 2. Further, in test [2] (setting [6]), the “Average inhibition female (%)” value was 50.5%, the “% inhibition female (individual replicates) R1” value stood at 52.5%, the “% inhibition female (individual replicates) R3” value is 48.5% and the “% inhibition female (individual replicates) R4” value was 54.4%. For the same molecule, in test [2] (setting [10]), the HitlevelF was 2.

As for `COc1ccc(CNC(=O)c2cnc3cc(-c4c(C)noc4C)ccc3c2Nc2ccccc2C(C)(C)C)cc1.Cl` [TCMDC-136367], in test [1] (setting [3]), the “% inhibition male (individual replicates) R1” value was -0.3% and the “% inhibition male (individual replicates) R4” value is reported as -17.2%. Also, in test [1] (setting [4]), the “Average inhibition male (%)” value is listed as -9.5%. Also, in test [2] (setting [3]), the “% inhibition female (individual replicates) R1” value is reported as -1.1%, the “% inhibition female (individual replicates) R3” value is -0.6% and the “% inhibition female (individual replicates) R4” value is reported as 13.4%. For the same molecule, the “Average inhibition female (%)” value in test [2] (setting [4]) was 2.7%.
